Measurements reported in PMC8419314, “Characterization of Compound-Specific, Concentration-Independent Biophysical Properties of Sodium Channel Inhibitor Mechanism of Action Using Automated Patch-Clamp Electrophysiology” (Frontiers in Pharmacology, 2021).
Several values for one entry are separate records, joined by “and”; a condition that tells them apart may be missing. Equal values may be shown once. Read-outs that look alike come from different tables or passages of the source.

Legend:
[1] = target: T1, rNaV1.4 channel (Rattus norvegicus, UniProt P15390); test: automated patch-clamp 17-pulse protocol (SDO, RFI, SSI), IonFlux Mercury, cell ensembles; assay type: cell-based; settings: pulse #5, SDO section; read-out: IC50 #5 (after 65.7 ms depol.)
T1 construct: expressed in transfected cells; host or cells: HEK 293
T1 sequence (P15390 whole entry): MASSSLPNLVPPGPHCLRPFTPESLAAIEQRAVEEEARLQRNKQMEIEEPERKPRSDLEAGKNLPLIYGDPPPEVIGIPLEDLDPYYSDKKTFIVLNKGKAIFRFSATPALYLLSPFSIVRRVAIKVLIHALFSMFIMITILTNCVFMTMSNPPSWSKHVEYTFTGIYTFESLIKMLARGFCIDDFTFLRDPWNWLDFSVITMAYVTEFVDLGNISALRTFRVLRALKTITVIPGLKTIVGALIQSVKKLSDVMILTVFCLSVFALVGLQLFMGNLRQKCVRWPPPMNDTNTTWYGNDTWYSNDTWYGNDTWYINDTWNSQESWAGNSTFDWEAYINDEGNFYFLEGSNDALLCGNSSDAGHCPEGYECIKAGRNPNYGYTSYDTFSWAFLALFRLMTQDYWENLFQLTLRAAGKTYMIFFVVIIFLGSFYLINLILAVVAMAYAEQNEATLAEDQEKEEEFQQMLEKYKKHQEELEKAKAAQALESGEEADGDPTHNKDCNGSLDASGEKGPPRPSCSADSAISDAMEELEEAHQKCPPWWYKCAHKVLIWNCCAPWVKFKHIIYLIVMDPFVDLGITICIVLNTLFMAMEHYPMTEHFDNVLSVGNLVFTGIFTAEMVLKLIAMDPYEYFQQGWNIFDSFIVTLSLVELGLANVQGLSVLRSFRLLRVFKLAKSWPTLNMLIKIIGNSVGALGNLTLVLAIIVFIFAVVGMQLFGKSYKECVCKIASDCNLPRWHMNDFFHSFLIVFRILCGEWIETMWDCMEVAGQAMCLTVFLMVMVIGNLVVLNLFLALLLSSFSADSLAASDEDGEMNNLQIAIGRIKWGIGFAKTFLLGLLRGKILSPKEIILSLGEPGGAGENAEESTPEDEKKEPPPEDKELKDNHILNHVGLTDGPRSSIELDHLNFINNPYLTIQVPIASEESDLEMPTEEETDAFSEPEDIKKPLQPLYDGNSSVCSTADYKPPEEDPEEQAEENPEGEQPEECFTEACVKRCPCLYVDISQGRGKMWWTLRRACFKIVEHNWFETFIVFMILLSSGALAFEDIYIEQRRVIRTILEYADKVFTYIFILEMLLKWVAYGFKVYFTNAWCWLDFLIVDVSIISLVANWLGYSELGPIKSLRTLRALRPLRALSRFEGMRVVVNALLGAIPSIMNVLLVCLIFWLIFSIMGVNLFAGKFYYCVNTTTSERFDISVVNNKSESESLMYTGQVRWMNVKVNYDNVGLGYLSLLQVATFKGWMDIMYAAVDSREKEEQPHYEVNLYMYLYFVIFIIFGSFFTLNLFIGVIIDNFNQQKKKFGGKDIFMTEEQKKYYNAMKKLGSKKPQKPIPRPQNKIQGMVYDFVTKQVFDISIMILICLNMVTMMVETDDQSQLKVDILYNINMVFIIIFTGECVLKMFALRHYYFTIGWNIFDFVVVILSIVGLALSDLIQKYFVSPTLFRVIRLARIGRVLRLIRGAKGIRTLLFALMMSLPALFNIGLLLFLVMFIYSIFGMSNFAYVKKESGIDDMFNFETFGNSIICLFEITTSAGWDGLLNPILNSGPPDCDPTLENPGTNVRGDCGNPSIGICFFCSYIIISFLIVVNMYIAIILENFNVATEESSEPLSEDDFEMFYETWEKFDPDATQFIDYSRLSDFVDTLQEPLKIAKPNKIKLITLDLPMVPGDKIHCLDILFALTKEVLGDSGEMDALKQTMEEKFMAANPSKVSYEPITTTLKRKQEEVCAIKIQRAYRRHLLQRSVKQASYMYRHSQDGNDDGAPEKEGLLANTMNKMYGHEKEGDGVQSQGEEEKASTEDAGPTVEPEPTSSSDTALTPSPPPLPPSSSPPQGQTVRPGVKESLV

[2] = target: T1, rNaV1.4 channel; test: as above; assay type: cell-based; settings: for Ki: inactivated-state affinity, calculated with equation of Bean et al. (1983)
Experimental: Cell culture and electrophysiology were done as described in the accompanying paper ([Lukacs et al., 2021]). The recombinant rNaV1.4 channel-expressing cell line was generated as described before ([Lukacs et al., 2018]). Transfected HEK 293 cells were maintained in Dulbecco’s Modified Eagle Medium, high glucose supplemented with 10% v/v fetal bovine serum, 100 U/ml of penicillin/streptomycin, and 0.4 mg/ml Geneticin (Life Technologies, Carlsbad, CA). For experiments, cells were dissociated from culture dishes with Accutase (Corning), shaken in serum-free medium for 60 min at room temperature, then centrifuged, and resuspended into the extracellular solution to a concentration of 5 × 10^6 cells/mL. Voltage-clamp recordings were performed on an IonFlux Mercury instrument (Fluxion Biosciences). The composition of solutions (in mM) was: Intracellular solution: 50 CsCl, 10 NaCl, 60 CsF, 20 EGTA, and 10 HEPES; pH 7.2 (adjusted with 1 M CsOH). Extracellular solution: 140 NaCl, 4 KCl, 1 MgCl2, 2 CaCl2, 5 D-Glucose, and 10 HEPES; pH 7.4 (adjusted with 1 M NaOH). The osmolality of intra-and extracellular solutions was set to ∼320 and ∼330 mOsm, respectively. Data were sampled at 20 kHz, and filtered at 10 kHz. Experiments were carried out at room temperature.
Each zone consists of 8 separate sections, which are distinct functional units, containing 12 wells: one well for the cell suspension, one well for the waste, two cell “traps” (intracellular solution-filled wells under negative pressure to establish high resistance seals and then whole-cell configuration), and eight compound wells. […] Two kinds of microfluidic plates are manufactured: In single-cell plates, each cell trap contains a single hole and therefore catches a single cell. In “ensemble plates” there are 20 holes in each cell trap, and 20 cells are recorded simultaneously. […] From the 16 cell ensembles of each zone, we chose n = 6 ensembles for analysis.
We used a complex 17-pulse voltage protocol (Figure 1A), described in detail in the accompanying paper ([Lukacs et al., 2021]), which allowed the assessment of gating kinetics and gating equilibrium in the absence and the presence of inhibitor/modulator compounds. The protocol investigated the effect of different durations of depolarizations: 2.5, 7.5, 22.5, and 67.5 ms with 2.5 ms hyperpolarizing gaps between them; this section (pulses #1 to #5) is shown by different shades of green in Figure 1, and was named “state-dependent onset” (SDO). Next, pulses #6 to #12, as well as #1 investigated the effect of different durations of hyperpolarizations (1, 2, 4, 8, 16, 32, 64, and 498 ms, separated by 5 ms depolarizations) in the section shown by different shades of blue, and named “recovery from inactivation” (RFI). Finally, pulses #12 to #17 assessed the resting-inactivated equilibrium at different membrane potentials in the section named “steady-state inactivation” (SSI). The three sections were similar to protocols we used in previous studies ([Lukacs et al., 2018]; [Földi et al., 2021]).
In addition to automatic fitting, described in the accompanying paper ([Lukacs et al., 2021]), in this study we used a different approach to process SDO, RFI, and SSI data. This analysis focused on deriving compound-specific but concentration-independent descriptors of the mechanism of action, which can lead to a more thorough understanding of the sub-processes involved in drug action, and which can later serve as a basis for constructing kinetic models for the simulation of drug-specific effects. All data analysis was done in Microsoft Excel (RRID:SCR_016137) environment, using VBA routines to accelerate repetitive data management tasks. For each of the 17 pulses peak amplitudes were measured after removing capacitive artifacts and subtracting the leak.

[3] = target: sodium channel; parameters: method as in Vladimirov et al., 2000; settings: resting-state; ref Vladimirov et al., 2000; read-out: KR; cited from earlier work
[4] = target: sodium channel; parameters: method as in Lenkey et al., 2010; settings: resting-state; ref Lenkey et al., 2010; read-out: KR; cited from earlier work
[5] = test system: sodium channel; settings: from 10 Hz to 50 Hz; ref Desaphy et al. (2014); cited from earlier work
[6] = 1st pulse-evoked current, resting-state estimate, n = 6 ensembles, read-out: IC50 #1 (estimated KR)
[7] = pulse #7, RFI section, read-out: IC50 #7 (after 1 ms hyperpol.)
[8] = pulse #17, SSI section, read-out: IC50 #17 (−70 mV)
[9] = time range within which effective inhibitor potency changes upon depolarization
[10] = time range within which effective inhibitor potency changes upon hyperpolarization

Row | SMILES | IC50 [1] [µM] | IC50 [2, 6] [µM] | Ki [2] [µM] | macro-offset time constant ([2]; offset upon drug washout) [s] | IC50 [2, 7] [µM] | IC50 [2, 8] [µM] | KR/KI ratio ([2]; state-dependence) | micro-onset range [2, 9] | micro-offset range [2, 10] | KR/KI ratio [2] | macro-offset time constant [2] [s] | micro-offset range [2] [ms] | micro-onset range [2] [ms] | other results
1 | CCOC(=O)c1ccc(N)cc1 [Benzocaine, benzocaine] | 1300 | 2240 | 79.4 ± 3.9 | 1.42 ± 0.59 | 290 ± 22.3 | 170 ± 10.3 | 28.3 ± 3.8 | 0.1 to 2 ms | 0.1 to 4 ms | – | – | – | – | fraction of channels inhibited ([2]; 100 µM, indicated by KI calculated from SSI data): more than half; channels recovered ([2]; at 2 ms gap duration): 70–90%; time for micro-offset to be complete ([2]; offset of effect upon hyperpolarization): ≤ 4 ms; time for micro-onset to be complete ([2]; onset of effect upon depolarization): ≤ 2.5 ms; KR/KI ratio ([2]; state-dependence, listed as benzocaine): 28.3
2 | CCCCN1CCCCC1C(=O)Nc1c(C)cccc1C (stereo not shown) [Bupivacaine, bupivacaine] | 27.3 ± 1.45 | 94.6 ± 10.7 | 12.7 ± 1.22 | 3.56 ± 0.43 | 33.5 ± 2.32 | 16.3 ± 1.7 | 7.48 ± 0.68 | 100–1,000 ms | 100–1,000 ms | – | – | – | – | macro-offset time constant ([2]; offset upon drug washout, listed as bupivacaine): 3.56 s; KR/KI ratio ([2]; state-dependence, listed as bupivacaine): 7.48; Kd [3]: ~317 µM; Kd [4]: ~619 µM
3 | CCN(CC)CC(=O)Nc1c(C)cccc1C [Lidocaine, lidocaine] | 31.9 ± 2.28 | 1280 | 18.4 ± 1.52 | – | 71.7 ± 5.83 | 22.8 ± 2.04 | – | – | – | 69.7 and 69.7 ± 20.9 | 1.72 ± 0.05 | 10 to 500 | 1 to 100 | time for micro-onset to be complete [2]: more than 100 ms
4 | Nc1nc2ccc(OC(F)(F)F)cc2s1 [Riluzole, riluzole] | 27.4 ± 6.44 | 1360 | 5.63 ± 3.35 | 13.6 ± 0.71 | 42.1 ± 3.62 | 6.86 ± 4.36 | – | – | – | – | – | – | – | inhibition, pulses #1, #6 and #12 ([2]; 100 µM, single cell ensemble): no inhibition; inhibition, pulses #7 and #17 ([2]; 100 µM, single cell ensemble): almost full inhibition; increase of apparent affinity [5]: 48 fold
5 | NC1=N[C@H](O)[C@H]2[C@H]3O[C@]4(O)O[C@@H]([C@@H](O)[C@@]2(N1)[C@@H]4O)[C@]3(O)CO [Tetrodotoxin, tetrodotoxin] | – | – | – | – | – | – | – | – | – | 1.7 ± 0.11 | 22.9 ± 1.50 | 1 to 10 | 1 to 100 | extent of change of EIP during SDO, RFI and SSI sections [2]: less than 2 fold; IC50 ([2]; read-out: IC50 #1 (estimated KR)): 0.028 µM; IC50 ([2]; read-out: IC50 #5 (after 65.7 ms depol.)): 0.015 µM; IC50 ([2]; read-out: IC50 #7 (after 1 ms hyperpol.)): 0.018 µM; IC50 ([2]; read-out: IC50 #17 (−70 mV)): 0.018 µM
